Test results published in US12427212B2, “Nectin-4 binding miniproteins, conjugates and uses thereof” (Aktis Oncology, Inc., priority 2023, dated 2025).
pKi: −log10 of the molar value. Bridges are numbered along the chain shown (N, C = ends). [ ]: non-standard residue; d: D form. The star is where a group is joined. Biotin = O=C1N[C@H]2[C@H](CS[C@H]2CCCCC(=O)*)N1; Lys(Me3) = C[N+](C)(C)CCCC[C@H](N)C(=O)O; Cit = NC(=O)NCCC[C@H](N)C(=O)O; PEG4 = NCCOCCOCCOCCOCCC(=O)O

How the values were obtained:
[1] = system: un-transfected HEK293 cells; experiment: Background binding to un-transfected HEK293 cells (cell microarray suitability); type: cell-based, human; settings: biotin-labeled molecules
Description: To evaluate potential off-target binding, six biotin-labeled molecules were tested in a cell microarray platform having 6,416 different human proteins spanning diverse functions and subcellular locations.

Nectin-4 = target: T1, Nectin-4 (Homo sapiens, UniProt Q96NY8); experiment: DELFIA competitive binding assay (Ki) against Eu-labeled C307 on HT-1376 cells
T1 sequence (Q96NY8 32-510): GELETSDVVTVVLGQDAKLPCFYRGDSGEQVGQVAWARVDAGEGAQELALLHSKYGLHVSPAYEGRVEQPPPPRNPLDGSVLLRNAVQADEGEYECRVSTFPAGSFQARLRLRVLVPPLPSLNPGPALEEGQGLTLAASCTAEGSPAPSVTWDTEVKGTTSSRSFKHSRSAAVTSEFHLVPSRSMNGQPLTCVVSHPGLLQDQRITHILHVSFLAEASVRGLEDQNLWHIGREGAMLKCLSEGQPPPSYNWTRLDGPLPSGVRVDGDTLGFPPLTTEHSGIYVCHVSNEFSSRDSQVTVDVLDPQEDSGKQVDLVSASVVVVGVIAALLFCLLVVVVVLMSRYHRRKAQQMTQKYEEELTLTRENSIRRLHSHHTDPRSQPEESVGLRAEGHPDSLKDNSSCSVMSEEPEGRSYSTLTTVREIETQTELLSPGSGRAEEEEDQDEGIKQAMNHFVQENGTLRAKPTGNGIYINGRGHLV
Description: A competition binding assay was utilized to determine the Ki for miniproteins bound to Nectin-4 expressed on the surface of cancer cells. […] Miniprotein incubations occurred for 90 min to reach binding equilibrium. […] After miniprotein incubations, the wells were washed to remove unbound ligand and treated according to manufacturer instructions for a DELFIA® (dissociation-enhanced lanthanide fluorescent immunoassay, Revvity Health Sciences). In brief, washed wells were incubated with 15 μL of 2 M HCl for 2 h at 37° C., after which 17 μL of 2 M NaOH and 30 μL of DELFIA® enhancement solution were added to each well and incubated for an additional 30 min. The remaining Eu reacted with the DELFIA® enhancer solution to generate fluorescence measured on the Envision instrument. Relative fluorescence units (RFUs) were measured as a function of test article concentration in order to calculate an IC50.
A whole cell binding assay was used to estimate the equilibrium binding affinity (KD) or binding inhibition constant (Ki) of miniprotein ligands to cells expressing a target of interest. Cells were dispensed into a 384-well plate and incubated at 37° C., in 5% CO2 overnight. The next day cells were gently washed once in assay buffer prior to addition of europium chelated ligand. […] For Ki determination, a single concentration (KD equivalent concentration) of europium-chelate miniprotein was added to each well followed immediately by the addition of unconjugated competing ligand over 12 different concentrations ranging from 100 times below and above expected Ki values as before. The plate was incubated for 1.5 h at room temperature to reach binding equilibrium. Cells were then washed three times at room temperature with 1×PBS followed by the addition of 2 M HCl and incubated for two h at 37° C. Following this step, 2 M NaOH and fluorescent inducer solution were added to each well and incubated for 30 minutes at room temperature according to the manufacturer's protocol (Perkin-ELMER DELFIA assay). Plates were read on an Envision plate reader and a curve-fitting model was applied to estimate KD and Ki values using GraphPad Prism software.
Engineered Nectin-4 miniproteins with further modified lysine residues (C298-C304; as described in Example 4B) were evaluated for their ability to bind to Nectin-4.

[2] = system: Opossum kidney proximal tubule cells; experiment: Proximal tubule epithelial cell uptake assay; type: cell-based; settings: Table 10A; mean percent uptake in opossum kidney cells, 1 h at 37° C., relative to control miniprotein C306
Description: FIG. 8 is a bar graph of the percent uptake of exemplary miniproteins tested at 20 µM in a proximal tubule epithelial cell assay vs 20 μM control peptide set at 100%. […]
Opossum kidney proximal tubule cells were plated in the upper chamber of 24-well transwell plates containing 600 μL of growth media in the lower chamber and were incubated overnight at 37° C., in 5% CO2. The following day, the media was changed, and cells were incubated an additional 24 h with orbital shaking at 146 RPM. Next, cells were washed and treated in duplicates with biotinylated exemplary miniproteins pre-complexed with streptavidin-AF647 for 1 h at 37° C., and 5% C02 with continuous orbital shaking. Following incubation, cells were washed three times with 1×PBS and lysed with RIPA buffer containing protease and phosphatase inhibitor cocktail and a universal nuclease for 30 minutes. Uptake was measured on 100 μL of lysates using a fluorimeter. Mean % uptake values of control miniprotein C306 in the presence of exemplary miniproteins are provided in TABLE 10A and summarized in FIG. 8.
Uptake of engineered Nectin-4 miniproteins with further modified lysine residues (C298-C304, as described in Example 4B) was evaluated. Percent uptake of these exemplary Nectin-4-targeting miniproteins and C251 were determined against a control miniprotein, C306, using opossum kidney proximal tubule cells as described in Example 18A. Percent uptake of C298, which has an unmodified lysine (K) at amino acid position 26 (along the length of the miniprotein sequence. SEQ ID NO: 162), was 37% in the presence of […]. All other miniproteins having a modified lysine (modified with one or more small alkyl groups of monomethyl, dimethyl, trimethyl, or isopropyl group) had (i) kidney uptake similar to that of C251 and (ii) reduced uptake as compared to C298, which has an unmodified lysine at position 26.

`CC[C@H](C)[C@@H]1NC(=O)[C@H](Cc2ccc(O)cc2)NC(=O)[C@H](CCC(=O)O)NC(=O)[C@@H]2CSSC[C@@H](C(=O)N[C@@H](CO)C(=O)O)NC(=O)CNC(=O)[C@H](CC(C)C)NC(=O)[C@H](CC(N)=O)NC(=O)[C@H](CC(=O)O)NC(=O)[C@H](CC(C)C)NC(=O)[C@H]([C@@H](C)CC)NC(=O)[C@H](CCC(=O)O)NC(=O)[C@H](CCC(=O)O)NC(=O)[C@H]([C@@H](C)CC)NC(=O)[C@H](CSSC[C@H](NC(=O)CCOCCOCCOCCOCCNC(=O)CCCC[C@@H]3SC[C@@H]4NC(=O)N[C@@H]43)C(=O)N[C@@H](CC(=O)O)C(=O)N[C@@H](Cc3ccc(O)cc3)C(=O)N[C@@H](CC(=O)O)C(=O)N[C@@H](CCC(=O)O)C(=O)N[C@@H](CCC(N)=O)C(=O)N[C@@H](Cc3ccccc3)C(=O)N[C@@H](Cc3ccccc3)C(=O)N[C@@H]([C@@H](C)O)C(=O)N[C@@H](C)C(=O)N[C@@H](CC(C)C)C(=O)N[C@@H](CCCCN)C(=O)N[C@@H](CCCNC(=N)N)C(=O)N[C@@H](CC(C)C)C(=O)N[C@@H](CCCNC(=N)N)C(=O)NCC(=O)NCC(=O)N[C@@H](CC(=O)O)C(=O)N[C@@H]([C@@H](C)CC)C(=O)N2)NC(=O)[C@H](CC(C)C)NC(=O)CNC(=O)[C@@H]2CCCN2C(=O)[C@H](CC(C)C)NC(=O)[C@H](Cc2ccc(O)cc2)NC(=O)[C@H](CCC(N)=O)NC(=O)[C@H](Cc2ccccc2)NC(=O)[C@H](CO)NC(=O)[C@H](C)NC(=O)[C@H](CCC(N)=O)NC1=O` [Compound C190] was tested, and the “Background binding to un-transfected HEK293 cells” value (from here on “Background binding”) [1] was “low-background binding”.
In the case of `CC[C@H](C)[C@@H]1NC(=O)[C@H](Cc2ccc(O)cc2)NC(=O)[C@H](CC(=O)O)NC(=O)[C@@H]2CSSC[C@@H](C(=O)N[C@@H](CO)C(=O)O)NC(=O)CNC(=O)[C@H](CC(C)C)NC(=O)[C@H](CC(N)=O)NC(=O)[C@H](CC(=O)O)NC(=O)[C@H](CC(C)C)NC(=O)[C@H]([C@@H](C)CC)NC(=O)[C@H](CCC(=O)O)NC(=O)[C@H](CCC(=O)O)NC(=O)[C@H]([C@@H](C)CC)NC(=O)[C@H](CSSC[C@H](NC(=O)CCOCCOCCOCCOCCNC(=O)CCCC[C@@H]3SC[C@@H]4NC(=O)N[C@@H]43)C(=O)N[C@@H](CCC(=O)O)C(=O)N[C@@H](Cc3ccc(O)cc3)C(=O)N[C@@H](CC(=O)O)C(=O)N[C@@H](CCC(=O)O)C(=O)N[C@@H](CCC(N)=O)C(=O)N[C@@H](Cc3ccccc3)C(=O)N[C@@H](Cc3ccccc3)C(=O)N[C@@H]([C@@H](C)O)C(=O)N[C@@H](C)C(=O)N[C@@H](CC(C)C)C(=O)N[C@@H](CCCCN)C(=O)N[C@@H](CCCNC(=N)N)C(=O)N[C@@H](CC(C)C)C(=O)N[C@@H](CCCNC(=N)N)C(=O)NCC(=O)N[C@@H](CC(=O)O)C(=O)N[C@@H](CC(=O)O)C(=O)N[C@@H]([C@@H](C)CC)C(=O)N2)NC(=O)[C@H](CC(C)C)NC(=O)CNC(=O)[C@@H]2CCCN2C(=O)[C@H](CC(C)C)NC(=O)[C@H](Cc2ccc(O)cc2)NC(=O)[C@H](CCC(N)=O)NC(=O)[C@H](Cc2ccccc2)NC(=O)[C@H](CO)NC(=O)[C@H](C)NC(=O)[C@H](CCC(N)=O)NC1=O` [Compound C197], the “Background binding” value [1] was “low-background binding”.
For `CC[C@H](C)[C@@H]1NC(=O)[C@H](Cc2ccc(O)cc2)NC(=O)[C@H](CCC(=O)O)NC(=O)[C@@H]2CSSC[C@@H](C(=O)N[C@@H](CO)C(=O)O)NC(=O)CNC(=O)[C@H](CC(C)C)NC(=O)[C@H](CC(N)=O)NC(=O)[C@H](CC(=O)O)NC(=O)[C@H](CC(C)C)NC(=O)[C@H]([C@@H](C)CC)NC(=O)[C@H](CCC(=O)O)NC(=O)[C@H](CCC(=O)O)NC(=O)[C@H]([C@@H](C)CC)NC(=O)[C@H](CSSC[C@H](NC(=O)CCOCCOCCOCCOCCNC(=O)CCCC[C@@H]3SC[C@@H]4NC(=O)N[C@@H]43)C(=O)N[C@@H](CC(=O)O)C(=O)N[C@@H](Cc3ccc(O)cc3)C(=O)N[C@@H](CC(=O)O)C(=O)N[C@@H](CCC(=O)O)C(=O)N[C@@H](CCC(N)=O)C(=O)N[C@@H](Cc3ccccc3)C(=O)N[C@@H](Cc3ccccc3)C(=O)N[C@@H]([C@@H](C)O)C(=O)N[C@@H](C)C(=O)N[C@@H](CC(C)C)C(=O)N[C@@H](CCCCN)C(=O)N[C@@H](CCCNC(=N)N)C(=O)N[C@@H](CC(C)C)C(=O)N[C@@H](CCCNC(=N)N)C(=O)NCC(=O)N[C@@H](C)C(=O)N[C@@H](CC(=O)O)C(=O)N[C@@H]([C@@H](C)CC)C(=O)N2)NC(=O)[C@H](CCC(=O)O)NC(=O)CNC(=O)[C@@H]2CCCN2C(=O)[C@H](CC(C)C)NC(=O)[C@H](Cc2ccc(O)cc2)NC(=O)[C@H](CCC(N)=O)NC(=O)[C@H](Cc2ccccc2)NC(=O)[C@H](CO)NC(=O)[C@H](C)NC(=O)[C@H](CCC(N)=O)NC1=O` [Compound C208], the “Background binding” value [1] was “low-background binding”.
For `CC[C@H](C)[C@@H]1NC(=O)[C@H](Cc2ccc(O)cc2)NC(=O)[C@H](CCC(=O)O)NC(=O)[C@@H]2CSSC[C@@H](C(=O)N[C@@H](CO)C(=O)O)NC(=O)CNC(=O)[C@H](CC(C)C)NC(=O)[C@H](CC(N)=O)NC(=O)[C@H](CC(=O)O)NC(=O)[C@H](CC(C)C)NC(=O)[C@H]([C@@H](C)CC)NC(=O)[C@H](CCC(=O)O)NC(=O)[C@H](CCC(=O)O)NC(=O)[C@H]([C@@H](C)CC)NC(=O)[C@H](CSSC[C@H](NC(=O)CCOCCOCCOCCOCCNC(=O)CCCC[C@@H]3SC[C@@H]4NC(=O)N[C@@H]43)C(=O)N[C@@H](CC(=O)O)C(=O)N[C@@H](Cc3ccc(O)cc3)C(=O)N[C@@H](CC(=O)O)C(=O)N[C@@H](CCC(=O)O)C(=O)N[C@@H](CCC(N)=O)C(=O)N[C@@H](Cc3ccccc3)C(=O)N[C@@H](Cc3ccccc3)C(=O)N[C@@H]([C@@H](C)O)C(=O)N[C@@H](C)C(=O)N[C@@H](CC(C)C)C(=O)N[C@@H](C)C(=O)N[C@@H](CCCNC(=N)N)C(=O)N[C@@H](CC(C)C)C(=O)N[C@@H](CCCNC(=N)N)C(=O)NCC(=O)N[C@@H](C)C(=O)N[C@@H](CC(=O)O)C(=O)N[C@@H]([C@@H](C)CC)C(=O)N2)NC(=O)[C@H](CCC(=O)O)NC(=O)CNC(=O)[C@@H]2CCCN2C(=O)[C@H](CC(C)C)NC(=O)[C@H](Cc2ccc(O)cc2)NC(=O)[C@H](CCC(N)=O)NC(=O)[C@H](Cc2ccccc2)NC(=O)[C@H](CO)NC(=O)[C@H](C)NC(=O)[C@H](CCC(N)=O)NC1=O` [Compound C247], the “Background binding” value [1] was “low-background binding”.
With “{Biotin-PEG4}-CDYDEQFFTALA[Cit]LRGGDICEYIQA[Lys(Me3)]FQYLPGLCIEEILDNLGCS-OH (disulfide 1-34, 20-44) [Compound C259]” the “Background binding” value [1] was “low-background binding”.
“{Biotin-PEG4}-CDYDEQFFTALKRLRGGDICEYIQA[Lys(Me3)]FQYLPGECIEEILDNLGCS-OH (disulfide 1-34, 20-44) [Compound C255]” was tested, and the pKi (Nectin-4) was 9.18 and the “% Uptake of C306 (Control)” value [2] was 14.1%.
“{Biotin-PEG4}-CEYDEEFFTALARLRGADICQYIQA[Lys(Me3)]FQYLPALCIEEILDNLGCS-OH (disulfide 1-34, 20-44) [Compound C252]” was tested, and the pKi (Nectin-4) was 9.12 and the “% Uptake of C306 (Control)” value [2] was 1.24%.
